Laboratory results from US20240174637A1, “DEGRADERS OF GRK2 AND USES THEREOF” (Sonata Therapeutics, Inc., priority 2021, published 2024).
Where a name gives a salt, the structure may show the parent alone. Read-outs that look alike come from different tables or passages of the source.

What was measured:
[1] = tested on: PAXF1657 EV; assay: 7-day cellular proliferation assay (CellTiter-Glo), PAXF1657 EV; format: cell-based
Procedure, shortened: (§1)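 Seven-day growth in PAXF1657 lines engineered for GRK2 overexpression or knockout, measured by CellTiter-Glo; compounds tested at 30 μM-0.0002 μM final and replenished once at day 3.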

[2] = biological target: T1, GRK2 (Homo sapiens, UniProt P25098); assay: GRK2 Inhibition Assay (TR-FRET, Example 1); format: biochemical
T1 sequence (P25098 1-689): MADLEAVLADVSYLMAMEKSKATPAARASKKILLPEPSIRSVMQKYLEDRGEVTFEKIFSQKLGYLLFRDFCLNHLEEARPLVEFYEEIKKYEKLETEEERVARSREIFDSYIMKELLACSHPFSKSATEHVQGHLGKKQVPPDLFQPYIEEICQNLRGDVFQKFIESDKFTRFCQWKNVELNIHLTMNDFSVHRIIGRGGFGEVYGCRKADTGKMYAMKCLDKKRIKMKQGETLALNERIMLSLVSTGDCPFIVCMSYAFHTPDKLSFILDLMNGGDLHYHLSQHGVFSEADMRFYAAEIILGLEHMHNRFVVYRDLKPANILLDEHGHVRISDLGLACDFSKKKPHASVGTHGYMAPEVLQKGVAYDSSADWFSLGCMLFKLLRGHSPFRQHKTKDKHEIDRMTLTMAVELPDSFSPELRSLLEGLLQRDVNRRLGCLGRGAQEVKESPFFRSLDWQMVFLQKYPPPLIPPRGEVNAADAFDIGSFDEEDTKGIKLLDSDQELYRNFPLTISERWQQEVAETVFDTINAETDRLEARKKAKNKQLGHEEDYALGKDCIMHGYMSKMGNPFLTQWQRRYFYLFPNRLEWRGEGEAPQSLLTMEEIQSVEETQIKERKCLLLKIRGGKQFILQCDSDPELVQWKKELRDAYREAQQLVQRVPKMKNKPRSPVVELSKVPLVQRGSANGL
Procedure, shortened: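 GRK2 (1 nM) pre-incubated 30 min RT with compounds in HEPES/MgCl2/DTT/Tween-20/EGTA buffer, then reacted 90 min RT with 7 μM ATP and 50 nM ULight-TopoIIα substrate. Stopped with EDTA plus Eu anti-TopoIIα antibody; TR-FRET read after 60 min.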

[3] = tested on: PAXF1657 KO Clone #4; assay: 7-day cellular proliferation assay (CellTiter-Glo), PAXF1657 KO Clone #4; format: cell-based
Procedure, shortened: as §1

[4] = biological target: T1, GRK2; assay: GRK2 Degradation Assay and Western Blot in PAXF1657 cells; format: cell-based; parameters: endogenous in cells; host or cells: PAXF1657; conditions: for DC50: PAXF1657, 24 h, read-out: Degradation Assay - Full Dose Response: IC50 (uM) [cell line: PAXF1657, time point: 24 h]
Procedure, shortened: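 PAXF1657 cells grown to 70% confluency, then treated with compounds at 0–10 μM for 6 to 24 h at 37 °C. Lysates in PBS with 1% NP40 run on SDS-PAGE. GRK2 protein detected by western blot with β-actin as loading reference, using ECL chemiluminescence.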

[5] = proliferation, read-out: GeoMean IC50 (UM) PAXF1657 EV
[6] = Table 4, Example 1 assay, read-out: Enzymatic GRK2 IC50: Av IC50 GRK2
[7] = proliferation, read-out: GeoMean IC50 (uM) PAXF1657 KO Clone #4
[8] = Conc 0.3 uM, read-out: Degradation Assay - 3 point: Degradation (%)
[9] = Conc 1 uM, read-out: Degradation Assay - 3 point: Degradation (%)
[10] = Conc 3 uM, read-out: Degradation Assay - 3 point: Degradation (%)
[11] = 168 h, 7-day, read-out: 7-day proliferation assay: IC50 GeoMean (uM) [Cell Line: PAXF1657 EV]
[12] = TR-FRET, 7 μM ATP, read-out: Enzymatic GRK2 Assay: IC50 (nM) (Example 1)
[13] = 168 h, 7-day, read-out: 7-day proliferation assay: IC50 GeoMean (uM) [Cell Line: PAXF1657 KO Clone #4]
[14] = 0.3 uM, PAXF1657 EV, 24 hrs, read-out: % GRK2 degradation at 0.3 uM in PAXF1657 EV (24 hrs)
[15] = 1 uM, PAXF1657 EV, 24 hrs, read-out: % GRK2 degradation at 1 uM in PAXF1657 EV (24 hrs)
[16] = 3 uM, PAXF1657 EV, 24 hrs, read-out: % GRK2 degradation at 3 uM in PAXF1657 EV (24 hrs)

SMILES	IC50 [1, 5]	IC50 [2, 6]	IC50 [3, 7]	inhibition at 0.3 µM [4, 8]	inhibition at 1 µM [4, 9]	inhibition at 3 µM [4, 10]	DC50 [4]	IC50 [1, 11]	IC50 [2, 12]	IC50 [3, 13]	% GRK2 degradation at 0.03 uM in PAXF1657 EV (24 hrs) ([4]; 0.03 uM, PAXF1657 EV, 24 hrs)	% GRK2 degradation at 0.1 uM in PAXF1657 EV (24 hrs) ([4]; 0.1 uM, PAXF1657 EV, 24 hrs)	inhibition at 0.3 µM [4, 14]	inhibition at 1 µM [4, 15]	inhibition at 3 µM [4, 16]	% GRK2 degradation at 10 uM in PAXF1657 EV (24 hrs) ([4]; 10 uM, PAXF1657 EV, 24 hrs)
C[C@@H](NC(=O)c1cccc(NCc2nnc(-c3ccncn3)n2C)c1)c1cccc(OCCCN2CCN(c3ccc4c(c3)CN(C3CCC(=O)NC3=O)C4=O)CC2)c1 (stereo partly drawn) [Compound D123, N-((1R)-1-(3-(3-(4-(2-(2,6-dioxopiperidin-3-yl)-1-oxoisoindolin-5-yl)piperazin-1-yl)propoxy)phenyl)ethyl)-3-((4-methyl-5-(pyrimidin-4-yl)-4H-1,2,4-triazol-3-yl)methylamino)benzamide hydrochloride]	< 0.000458 µM	6.56 nM	> 30 µM	81.6%	85.2%	84%	0.03 µM									
C[C@@H](NC(=O)c1cccc(NCc2nnc(-c3ccncn3)n2C)c1)c1cccc(OCC(=O)N2CCN(c3ccc4c(c3)CN(C3CCC(=O)NC3=O)C4=O)CC2)c1 (stereo partly drawn) [Compound D176, N-((1R)-1-(3-(2-(4-(2-(2,6-dioxopiperidin-3-yl)-1-oxoisoindolin-5-yl)piperazin-1-yl)-2-oxoethoxy)phenyl)ethyl)-3-((4-methyl-5-(pyrimidin-4-yl)-4H-1,2,4-triazol-3-yl)methylamino)benzamide]	8.02 µM	24.1 nM	> 30 µM	33%	24.4%	10.7%										
C[C@@H](NC(=O)c1cccc(NCc2nnc(-c3ccncn3)n2C)c1)c1cccc(OCCCCCCOCCOCCOCCC(=O)N2CCN(c3cc4c(cc3F)C(=O)N(C3CCC(=O)NC3=O)C4=O)CC2)c1 (stereo partly drawn) [Compound D130, N-((1R)-1-(3-(6-(2-(2-(3-(4-(2-(2,6-dioxopiperidin-3-yl)-6-fluoro-1,3-dioxoisoindolin-5-yl)piperazin-1-yl)-3-oxopropoxy)ethoxy)ethoxy)hexyloxy)phenyl)ethyl)-3-((4-methyl-5-(pyrimidin-4-yl)-4H-1,2,4-triazol-3-yl)methylamino)benzamide]	0.88 µM	17.9 nM	24.7 µM	78.7%	84.7%	90.7%	0.29 µM									
Cc1ncsc1-c1ccc(CNC(=O)[C@@H]2C[C@@H](O)CN2C(=O)[C@@H](NC(=O)CCCCCOCCOCCOCCCCCCOc2cccc(C(C)NC(=O)c3cccc(NCc4nnc(-c5ccncn5)n4C)c3)c2)C(C)(C)C)cc1 (stereo partly drawn) [Compound D91, (2S,4R)-1-((2S)-2-(tert-butyl)-22-(3-(1-(3-(((4-methyl-5-(pyrimidin-4-yl)-4H-1,2,4-triazol-3-yl)methyl)amino)benzamido)ethyl)phenoxy)-4-oxo-10,13,16-trioxa-3-azadocosan-1-oyl)-4-hydroxy-N-(4-(4-methylthiazol-5-yl)benzyl)pyrrolidine-2-carboxamide]								< 1 µM	< 100 nM	1 to 10 µM	37%	28%	42%	51%	16%	−4%
C[C@@H](NC(=O)c1cccc(NCc2nnc(-c3ccncn3)n2C)c1)c1cccc(OCCCCCCOCCOCCOCCCC(=O)N2CCN(c3cc4c(cc3F)C(=O)N(C3CCC(=O)NC3=O)C4=O)CC2)c1 (stereo partly drawn) [Compound D178, N-((1R)-1-(3-((6-(2-(2-(4-(4-(2-(2,6-dioxopiperidin-3-yl)-6-fluoro-1,3-dioxoisoindolin-5-yl)piperazin-1-yl)-4-oxobutoxy)ethoxy)ethoxy)hexyl)oxy)phenyl)ethyl)-3-(((4-methyl-5-(pyrimidin-4-yl)-4H-1,2,4-triazol-3-yl)methyl)amino)benzamide]	0.31 µM	11.6 nM	> 30 µM	45%	72%	84%										
Cn1c(CNc2cccc(C(=O)NCc3cccc(OCCCCCn4cc(CCCC(=O)Nc5cccc6c5CN(C5CCC(=O)NC5=O)C6=O)nn4)c3)c2)nnc1-c1ccncn1 (centres unmarked) [Compound D59]								> 10 µM	< 100 nM	> 10 µM			33%	18%	53%	
Cc1ncsc1-c1ccc(CNC(=O)[C@@H]2C[C@@H](O)CN2C(=O)[C@@H](NC(=O)COCCCOCCCCCOc2ccc([C@H](C)NC(=O)c3cccc(NCc4nnc(-c5ccncn5)n4C)c3)cc2)C(C)(C)C)cc1 [Compound D151]	0.3 µM	> 1000 nM	9.65 µM	56%	58%	34%										
C[C@@H](NC(=O)c1cccc(NCc2nnc(-c3ccncn3)n2C)c1)c1cccc(OCCCCCOCCCOCC(=O)N2CCN(c3ccc4c(c3)CN(C3CCC(=O)NC3=O)C4=O)CC2)c1 (stereo partly drawn) [Compound D181, N-((1R)-1-(3-((5-(3-(2-(4-(2-(2,6-dioxopiperidin-3-yl)-1-oxoisoindolin-5-yl)piperazin-1-yl)-2-oxoethoxy)propoxy)pentyl)oxy)phenyl)ethyl)-3-(((4-methyl-5-(pyrimidin-4-yl)-4H-1,2,4-triazol-3-yl)methyl)amino)benzamide]	0.58 µM	11.8 nM	> 30 µM	55%	78%	86%										
Cc1ncsc1-c1ccc(CNC(=O)[C@@H]2C[C@@H](O)CN2C(=O)[C@@H](NC(=O)CCCCOCCOCCOCCCCCCOc2cccc(CNC(=O)c3cccc(NCc4nnc(-c5ccncn5)n4C)c3)c2)C(C)(C)C)cc1 [Compound D109, (2S,4R)-1-((S)-2-(tert-butyl)-21-(3-((3-(((4-methyl-5-(pyrimidin-4-yl)-4H-1,2,4-triazol-3-yl)methyl)amino)benzamido)methyl)phenoxy)-4-oxo-9,12,15-trioxa-3-azahenicosan-1-oyl)-4-hydroxy-N-(4-(4-methylthiazol-5-yl)benzyl)pyrrolidine-2-carboxamide]	0.68 µM	54.9 nM	5.17 µM	26.1%	45.9%	66.6%										
C[C@@H](NC(=O)c1cccc(NCc2nnc(-c3ccncn3)n2C)c1)c1cccc(OCCCCCOCCCOCCOc2ccc3c(c2)CN(C2CCC(=O)NC2=O)C3=O)c1 (stereo partly drawn) [Compound D160, N-((1R)-1-(3-((5-(3-(2-((2-(2,6-dioxopiperidin-3-yl)-1-oxoisoindolin-5-yl)oxy)ethoxy)propoxy)pentyl)oxy)phenyl)ethyl)-3-(((4-methyl-5-(pyrimidin-4-yl)-4H-1,2,4-triazol-3-yl)methyl)amino)benzamide]	0.05 µM	25 nM	> 30 µM	92%	87%	83%										
C[C@@H](NC(=O)c1cccc(NCc2nnc(-c3ccncn3)n2C)c1)c1cccc(OCCCCCCOCCOCCOCCCCCC(=O)Nc2cccc3c2CN(C2CCC(=O)N(C)C2=O)C3=O)c1 (some centres unmarked) [Compound D190]	1.74 µM	12.7 nM	26.8 µM	-22%	51%	53%										
